Assay results reported in patent US7994209B2, “3-phenoxymethylpyrrolidine compounds” (Theravance, Inc., priority 2009, dated 2011).

Assays:
hSERT [1] = biological target: T1, hSERT (Homo sapiens, UniProt P31645); assay: hSERT membrane radioligand binding assay (3H-citalopram), Assay 1; details: SERT pKi, hSERT HEK-293 membranes, 1.0 nM 3H-citalopram; values given as lower bounds
hNET [2] = biological target: T2, hNET (Homo sapiens, UniProt P23975); assay: hNET membrane radioligand binding assay (3H-nisoxetine), Assay 1
Procedure: Membrane radioligand binding assays were used to measure inhibition of labeled ligand (^3H-citalopram or ^3H-nisoxetine or ^3H-WIN35428) binding to membranes prepared from cells expressing the respective human recombinant transporter (hSERT or hNET or hDAT) in order to determine the pKi values of test compounds at the transporters.
Recombinant human embryonic kidney (HEK-293) derived cell lines stably transfected with hSERT or hNET, respectively, were grown in DMEM medium supplemented with 10% dialyzed FBS (for hSERT) or FBS (for hNET), 100 μg/mL penicillin, 100 μg/mL streptomycin, 2 mM L-glutamine and 250 μg/mL of the aminoglycoside antibiotic G418, in a 5% CO2 humidified incubator at 37° C. When cultures reached 80% confluence, the cells were washed thoroughly in PBS (without Ca^2+ and Mg^2+) and lifted with 5 mM EDTA in PBS. Cells were pelleted by centrifugation, resuspended in lysis buffer (10 mM Tris-HCl, pH7.5 containing 1 mM EDTA), homogenized, pelleted by centrifugation, then resuspended in 50 mM Tris-HCl, pH 7.5 and 10% sucrose at 4° C. Protein concentration of the membrane suspension was determined using a Bio-Rad Bradford Protein Assay kit. Membranes were snap frozen and stored at −80° C.
Binding assays were performed in a 96-well assay plate in a total volume of 200 μl assay buffer (50 mM Tris-HCl, 120 mM NaCl, 5 mM KCl, pH 7.4) with 0.5, 1, and 3 μg membrane protein, for SERT, NET and DAT, respectively.
Stock solutions (10 mM in DMSO) of test compound were prepared and serial dilutions made using Dilution Buffer (50 mM Tris-HCl, 120 mM NaCl, 5 mM KCl, pH 7.4, 0.1% BSA, 400 μM ascorbic acid).
Following a 60 minute incubation at 22° C. (or a period sufficient to reach equilibrium), the membranes were harvested by rapid filtration over a 96-well UniFilter GF/B plate, pretreated with 0.3% polyethyleneimine, and washed 6 times with 300 μl wash buffer (50 mM Tris-HCl, 0.9% NaCl, pH 7.5 at 4° C.). Plates were dried overnight at room temperature, approximately 45 μl of MicroScint™-20 (Perkin Elmer) added and bound radioactivity quantitated via liquid scintillation spectroscopy. Inhibition curves and saturation isotherms were analyzed using GraphPad Prism Software package (GraphPad Software, Inc., San Diego, Calif.). IC50 values were generated from concentration response curves using the Sigmoidal Dose Response (variable slope) algorithm in Prism GraphPad.

hNET [3] = biological target: T2, hNET; assay: hNET neurotransmitter uptake assay (3H-NE), Assay 2; type: cell-based; parameters: expressed in transfected cells; host or cells: HEK-293; details: norepinephrine reuptake inhibition, 3H-NE uptake, HEK-293 hNET cells (values without asterisk); read-out: NET pIC50 (converted)
hSERT [4] = biological target: T1, hSERT; assay: hSERT neurotransmitter uptake assay (3H-5-HT), Assay 2; type: cell-based; parameters: expressed in transfected cells; host or cells: HEK-293; details: serotonin reuptake inhibition, 3H-5-HT uptake, HEK-293 hSERT cells (values without asterisk); read-out: SERT pIC50 (converted)

T2 sequence (P23975 whole entry): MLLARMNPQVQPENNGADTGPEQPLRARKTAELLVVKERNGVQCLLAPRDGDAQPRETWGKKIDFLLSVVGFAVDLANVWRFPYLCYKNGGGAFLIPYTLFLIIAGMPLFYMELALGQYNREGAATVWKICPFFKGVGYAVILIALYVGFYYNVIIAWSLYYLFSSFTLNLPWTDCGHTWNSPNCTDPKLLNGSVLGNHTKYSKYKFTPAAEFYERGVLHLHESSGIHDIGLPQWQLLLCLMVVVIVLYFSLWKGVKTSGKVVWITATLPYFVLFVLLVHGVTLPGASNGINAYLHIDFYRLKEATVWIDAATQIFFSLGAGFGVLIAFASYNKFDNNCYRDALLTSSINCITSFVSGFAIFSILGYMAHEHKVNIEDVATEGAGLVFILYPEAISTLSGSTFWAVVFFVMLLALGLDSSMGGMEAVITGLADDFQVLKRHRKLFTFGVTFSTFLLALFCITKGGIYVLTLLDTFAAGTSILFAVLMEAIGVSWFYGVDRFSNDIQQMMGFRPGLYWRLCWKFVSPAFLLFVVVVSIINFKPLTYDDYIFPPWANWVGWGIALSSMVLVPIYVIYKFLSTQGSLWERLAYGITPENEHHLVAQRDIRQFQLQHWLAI
T1 sequence (P31645 whole entry): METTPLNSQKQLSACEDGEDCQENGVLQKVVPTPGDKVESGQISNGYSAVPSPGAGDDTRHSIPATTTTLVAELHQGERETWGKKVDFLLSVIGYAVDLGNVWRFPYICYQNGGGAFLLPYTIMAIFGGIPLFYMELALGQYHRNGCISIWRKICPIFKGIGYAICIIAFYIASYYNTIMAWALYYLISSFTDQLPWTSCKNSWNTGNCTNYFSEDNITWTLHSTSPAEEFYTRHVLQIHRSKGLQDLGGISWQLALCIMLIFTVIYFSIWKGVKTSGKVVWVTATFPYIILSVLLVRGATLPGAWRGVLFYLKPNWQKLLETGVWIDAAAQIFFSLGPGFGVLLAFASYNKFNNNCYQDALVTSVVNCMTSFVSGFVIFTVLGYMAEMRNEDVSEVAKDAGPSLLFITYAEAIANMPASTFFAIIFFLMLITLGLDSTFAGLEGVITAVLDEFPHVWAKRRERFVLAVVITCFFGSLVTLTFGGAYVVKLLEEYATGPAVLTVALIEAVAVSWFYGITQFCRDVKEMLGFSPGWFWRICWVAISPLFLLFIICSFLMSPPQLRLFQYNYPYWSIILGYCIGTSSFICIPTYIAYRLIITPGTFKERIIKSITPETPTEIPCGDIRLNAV

| Compound | Ki (hSERT [1]) | Ki (hNET [2]) | IC50 (hNET [3]) | IC50 (hSERT [4]) |
| --- | --- | --- | --- | --- |
| CC(C)[C@H](Oc1ccc(Cl)c(F)c1F)[C@H]1CCNC1 [Example 6-10, (S)-3-[(S)-1-(4-Chloro-2,3-difluorophenoxy)-2-methylpropyl]pyrrolidine] | ≤ 10 nM | ≤ 10 nM | ≤ 10 nM | ≤ 10 nM |
| CC(C)C(Oc1ccccc1Cl)C1CCNC1 (centres unmarked) [Example 6-11, 3-[1-(2-Chlorophenoxy)-2-methylpropyl]pyrrolidine] | ≤ 10 nM | ≤ 10 nM | ≤ 10 nM | ≤ 100 nM |
| CC(C)[C@H](Oc1cccc(Cl)c1Cl)[C@H]1CCNC1 [Example 6-12, (S)-3-[(S)-1-(2,3-Dichlorophenoxy)-2-methylpropyl]pyrrolidine] | ≤ 10 nM | ≤ 10 nM | ≤ 10 nM | ≤ 10 nM |
| CC(C)C(Oc1cccc(Cl)c1Cl)C1CCNC1 (centres unmarked) [Example 6-13, 3-[1-(2,3-Dichlorophenoxy)-2-methylpropyl]pyrrolidine] | ≤ 10 nM | ≤ 10 nM | ≤ 10 nM | ≤ 10 nM |
| CC(C)[C@@H](Oc1cccc(Cl)c1Cl)[C@H]1CCNC1 [Example 6-14, (S)-3-[(R)-1-(2,3-Dichlorophenoxy)-2-methylpropyl]pyrrolidine] | ≤ 10 nM | ≤ 10 nM | ≤ 10 nM | ≤ 10 nM |
| CC(C)[C@@H](Oc1cccc(Cl)c1Cl)[C@@H]1CCNC1 [Example 6-15, (R)-3-[(R)-1-(2,3-Dichlorophenoxy)-2-methylpropyl]pyrrolidine] | ≤ 10 nM | ≤ 10 nM | ≤ 10 nM | ≤ 10 nM |
| CC(C)[C@H](Oc1cccc(F)c1Cl)[C@H]1CCNC1 [Example 6-17, (S)-3-[(S)-1-(2-Chloro-3-fluorophenoxy)-2-methylpropyl]pyrrolidine] | ≤ 10 nM | ≤ 10 nM | ≤ 10 nM | ≤ 10 nM |
| CC(C)C(Oc1cccc(F)c1Cl)C1CCNC1 (centres unmarked) [Example 6-18, 3-[1-(2-Chloro-3-fluorophenoxy)-2-methylpropyl]pyrrolidine] | ≤ 10 nM | ≤ 10 nM | ≤ 10 nM | ≤ 100 nM |
| CC(C)[C@@H](Oc1cccc(F)c1Cl)[C@H]1CCNC1 [Example 6-19, (S)-3-[(R)-1-(2-Chloro-3-fluorophenoxy)-2-methylpropyl]pyrrolidine] | ≤ 10 nM | ≤ 100 nM | ≤ 100 nM | ≤ 10 nM |
| CC(C)[C@H](Oc1ccc(Cl)cc1Cl)[C@H]1CCNC1 [Example 6-21, (S)-3-[(S)-1-(2,4-Dichlorophenoxy)-2-methylpropyl]pyrrolidine] | ≤ 10 nM | ≤ 10 nM | ≤ 10 nM | ≤ 10 nM |
| Cc1ccc(O[C@@H](C(C)C)[C@H]2CCNC2)c(Cl)c1 [Example 6-24, (S)-3-[(S)-1-(2-Chloro-4-methylphenoxy)-2-methylpropyl]pyrrolidine] | ≤ 10 nM | ≤ 10 nM | ≤ 10 nM | ≤ 10 nM |
| CC(C)[C@H](Oc1c(F)cc(Cl)cc1Cl)[C@H]1CCNC1 [Example 6-30, (S)-3-[(S)-1-(2,4-Dichloro-6-fluorophenoxy)-2-methylpropyl]pyrrolidine] | ≤ 10 nM | ≤ 10 nM | ≤ 10 nM | ≤ 10 nM |
| CC(C)[C@H](Oc1c(F)ccc(Cl)c1Cl)[C@H]1CCNC1 [Example 6-34, (S)-3-[(S)-1-(2,3-Dichloro-6-fluorophenoxy)-2-methylpropyl]pyrrolidine] | ≤ 10 nM | ≤ 10 nM | ≤ 10 nM | ≤ 10 nM |
| CC(C)[C@H](Oc1c(Cl)ccc(Cl)c1Cl)[C@H]1CCNC1 [Example 6-35, (S)-3-[(S)-2-Methyl-1-(2,3,6-trichlorophenoxy)-propyl]-pyrrolidine] | ≤ 10 nM | ≤ 10 nM | ≤ 10 nM | ≤ 10 nM |
| CC(C)[C@H](Oc1c(F)ccc(F)c1Cl)[C@H]1CCNC1 [Example 6-36, (S)-3-[(S)-1-(2-Chloro-3,6-difluorophenoxy)-2-methylpropyl]pyrrolidine] | ≤ 10 nM | ≤ 10 nM | ≤ 10 nM | ≤ 100 nM |
| CC(C)[C@H](Oc1c(Cl)c(F)cc(F)c1Cl)[C@H]1CCNC1 [Example 6-38, (S)-3-[(S)-1-(2,6-Dichloro-3,5-difluorophenoxy)-2-methylpropyl]pyrrolidine] | ≤ 10 nM | ≤ 10 nM | ≤ 10 nM | ≤ 100 nM |
| Cc1c(Cl)cccc1O[C@@H](C(C)C)[C@H]1CCNC1 [Example 6-39, (S)-3-[(S)-1-(3-Chloro-2-methylphenoxy)-2-methylpropyl]pyrrolidine] | ≤ 10 nM | ≤ 10 nM | ≤ 10 nM | ≤ 10 nM |
| Cc1c(Cl)cccc1O[C@H](C(C)C)[C@H]1CCNC1 [Example 6-40, (S)-3-[(R)-1-(3-Chloro-2-methylphenoxy)-2-methylpropyl]pyrrolidine] | ≤ 10 nM | ≤ 10 nM | ≤ 10 nM | ≤ 10 nM |

| Compound | Ki (hSERT [1]) | Ki (hNET [2]) | IC50 (hNET [3]) | IC50 (hSERT [4]) |
| --- | --- | --- | --- | --- |
| Cc1cccc(O[C@H](C(C)C)[C@H]2CCNC2)c1C [Example 6-43, (S)-3-[(R)-1-(2,3-Dimethylphenoxy)-2-methylpropyl]pyrrolidine] | ≤ 10 nM | ≤ 10 nM | ≤ 10 nM | ≤ 10 nM |
| Cc1cc(Cl)ccc1O[C@@H](C(C)C)[C@H]1CCNC1 [Example 6-45, (S)-3-[(S)-1-(4-Chloro-2-methylphenoxy)-2-methylpropyl]pyrrolidine] | ≤ 10 nM | ≤ 10 nM | ≤ 10 nM | ≤ 10 nM |
| COc1cc(Cl)ccc1O[C@@H](C(C)C)[C@H]1CCNC1 [Example 6-47, (S)-3-[(S)-1-(4-Chloro-2-methoxyphenoxy)-2-methylpropyl]pyrrolidine] | ≤ 10 nM | ≤ 10 nM | ≤ 10 nM | ≤ 10 nM |
| CC(C)C(Oc1ccc(Cl)cc1C(F)(F)F)C1CCNC1 (centres unmarked) [Example 6-50, 3-[1-(4-Chloro-2-trifluoromethylphenoxy)-2-methylpropyl]pyrrolidine] | ≤ 10 nM | ≤ 10 nM | ≤ 10 nM | ≤ 100 nM |
| CC(C)[C@H](Oc1ccc(Cl)c(F)c1)[C@H]1CCNC1 [Example 6-56, (S)-3-[(S)-1-(4-Chloro-3-fluorophenoxy)-2-methylpropyl]pyrrolidine] | ≤ 10 nM | ≤ 10 nM | ≤ 10 nM | ≤ 10 nM |
| CC(C)[C@H](Oc1ccc(Cl)c(Cl)c1)[C@H]1CCNC1 [Example 6-62, (S)-3-[(S)-1-(3,4-Dichlorophenoxy)-2-methylpropyl]pyrrolidine] | ≤ 10 nM | ≤ 10 nM | ≤ 10 nM | ≤ 10 nM |
| CC(C)[C@H](Oc1cc(Cl)cc(Cl)c1)[C@H]1CCNC1 [Example 6-66, (S)-3-[(S)-1-(3,5-Dichlorophenoxy)-2-methylpropyl]pyrrolidine] | ≤ 10 nM | ≤ 100 nM | ≤ 100 nM | ≤ 10 nM |
| CC(C)[C@@H](Oc1cc(Cl)cc(Cl)c1)[C@H]1CCNC1 [Example 6-68, (S)-3-[(R)-1-(3,5-Dichlorophenoxy)-2-methylpropyl]pyrrolidine] | ≤ 10 nM | ≤ 10 nM | ≤ 10 nM | ≤ 10 nM |
| Cc1cc(O[C@@H](C(C)C)[C@H]2CCNC2)ccc1Cl [Example 6-70, (S)-3-[(S)-1-(4-Chloro-3-methylphenoxy)-2-methylpropyl]pyrrolidine] | ≤ 10 nM | ≤ 10 nM | ≤ 10 nM | ≤ 10 nM |
| CC(C)C(Oc1ccc(Cl)cc1)C1CCNC1 (centres unmarked) [Example 6-74, 3-[1-(4-Chlorophenoxy)-2-methylpropyl]pyrrolidine] | ≤ 10 nM | ≤ 10 nM | ≤ 10 nM | ≤ 10 nM |
| CC(C)[C@@H](Oc1ccc(Cl)cc1)[C@@H]1CCNC1 [Example 6-75, (R)-3-[(R)-1-(4-Chlorophenoxy)-2-methylpropyl]pyrrolidine] | ≤ 10 nM | ≤ 100 nM | ≤ 100 nM | ≤ 10 nM |
| CCCC[C@@H](Oc1cc(F)c(F)cc1F)[C@H]1CCNC1 [Example 7, (S)-3-[(R)-1-(2,4,5-Trifluorophenoxy)pentyl]pyrrolidine] | ≤ 10 nM | ≤ 10 nM | ≤ 10 nM | ≤ 100 nM |
| CCCC[C@@H](Oc1ccccc1Cl)[C@H]1CCNC1 [Example 8-1, (S)-3-[(R)-1-(2-Chlorophenoxy)pentyl]pyrrolidine] | ≤ 10 nM | ≤ 10 nM | ≤ 10 nM | ≤ 100 nM |
| CCCC[C@@H](Oc1ccccc1C(F)(F)F)[C@H]1CCNC1 [Example 8-2, (S)-3-[(R)-1-(2-Trifluoromethylphenoxy)pentyl]pyrrolidine] | ≤ 10 nM | ≤ 10 nM | ≤ 100 nM | ≤ 100 nM |
| CCCC[C@@H](Oc1ccc(F)cc1)[C@H]1CCNC1 [Example 8-3, (S)-3-[(R)-1-(4-Fluorophenoxy)pentyl]pyrrolidine] | ≤ 10 nM | ≤ 10 nM | ≤ 100 nM | ≤ 100 nM |
| CCCC[C@@H](Oc1ccc(Cl)cc1)[C@H]1CCNC1 [Example 8-4, (S)-3-[(R)-1-(4-Chlorophenoxy)pentyl]pyrrolidine] | ≤ 10 nM | ≤ 10 nM | ≤ 10 nM | ≤ 10 nM |
| CCCC[C@@H](Oc1c(Cl)cccc1Cl)[C@H]1CCNC1 [Example 8-12, (S)-3-[(R)-1-(2,6-Dichlorophenoxy)pentyl]pyrrolidine] | ≤ 10 nM | ≤ 10 nM | ≤ 10 nM | ≤ 100 nM |
